Data taken from patent publication US7268161B2, “Comprehensive pharmacologic therapy for treatment of obesity including cysteine” (priority 1999, dated 2007).

Legend:
norepinephrine = conditions: drugs used in treatment of a patient for weight loss; cited from earlier work
tachyphylaxis = test: Cysteine therapy in patients with tachyphylaxis from drugs that increase synaptic norepinephrine; assay type: in vivo; conditions: patients on drugs which cause increased levels of norepinephrine in the synapse
From the text: The core of Tyrosine Hydroxylase is a “heme-thiolate” protein (see FIG. 1). The “heme-thiolate” protein is composed of iron in the form of a cytochrome P-450 complex and Cysteine. Patients experiencing tachyphylaxis from drugs which cause increased levels of norepinephrine in the synapse, generally have serum iron levels which are normal.

| Structure (SMILES) | increase of intersynaptic levels of norepinephrine (norepinephrine) | reversal of tachyphylaxis (tachyphylaxis) |
| --- | --- | --- |
| CC(C)(N)Cc1ccccc1 [Phentermine] | ≥ 2,500 times | – |
| N[C@@H](CS)C(=O)O [Cysteine] | – | effective in reversing the tachyphylaxis |
